Source: ChEMBL document CHEMBL1201862, “PubChem BioAssay data set” (2004)
Activity calls are given as the source filed them.

Tests used:
[1] = Luminescence Cell-Based Dose Response HTS to Identify Inhibitors of 5'UTR Stem-Loop Driven Prion Protein mRNA Translation in H4 Neuroglioblastoma Cells. [Related pubchem assays: 1827 (Project Summary), 1813 (Primary HTS)]; assay type: functional
[2] = viability loss in Vero cells – cytotoxicity control for Vif-APOBEC3G degradation inhibitor project, dose response (AID 1117358); assay type: functional; conditions: Vero
[3] = luciferase reporter signal suppression in cells – H4 neuroglioma cells, luminescence, dose response (AID 1990); assay type: functional, cell-based
[4] = target: Voltage-dependent T-type calcium channel subunit alpha-1H (Homo sapiens, UniProt O95180); assay type: functional;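 further: channel activity triggered by adding a high calcium stimulation buffer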
[5] = viability of HCT116 lacking mutant beta-catenin – cell-based, human colon tumor, dose response (AID 1045); assay type: functional;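 further: HCT116 colon tumor cells with beta catenin knocked out; cells exposed to compound for 60 hours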
[6] = viability of PTEN-deleted HCT116 cells – cell-based, HCT116 PTEN knockout, dose response (AID 1047); assay type: functional;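 further: HCT116 colon tumor cells with PTEN knocked out; cells exposed to compound for 60 hours before readout; potency for loss of cell viability measured by luminescence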
[7] = alpha-synuclein stem-loop luciferase translation blockers – H4 neuroglioma cells, luminescence, confirmation (AID 1988); assay type: functional, cell-based
[8] = target: Photoreceptor-specific nuclear receptor (Homo sapiens, UniProt Q9Y5X4); assay: ligands suppressing NR2E3 nuclear receptor activity – biochemical, TR-FRET, dose response (AID 463256); assay type: functional
[9] = target: Peroxisome proliferator-activated receptor gamma/Nuclear receptor corepressor 2 (Homo sapiens, UniProt P37231+Q9Y618); assay: Counterscreen for NR2E3 inverse agonists: TR-FRET-based biochemical high throughput dose response assay to identify inverse agonists of the interaction between peroxisome proliferator-activated receptor gamma (PPARg) and nuclear receptor co-repressor 2 (NCOR2).; assay type: functional
[10] = target: T1, Zinc finger protein mex-5 (Caenorhabditis elegans, UniProt Q9XUB2); assay: potency of MEX-5 RNA-binding blockers – biochemical, C. elegans, fluorescence polarization, dose response (AID 1960)
T1 sequence (Q9XUB2 whole entry): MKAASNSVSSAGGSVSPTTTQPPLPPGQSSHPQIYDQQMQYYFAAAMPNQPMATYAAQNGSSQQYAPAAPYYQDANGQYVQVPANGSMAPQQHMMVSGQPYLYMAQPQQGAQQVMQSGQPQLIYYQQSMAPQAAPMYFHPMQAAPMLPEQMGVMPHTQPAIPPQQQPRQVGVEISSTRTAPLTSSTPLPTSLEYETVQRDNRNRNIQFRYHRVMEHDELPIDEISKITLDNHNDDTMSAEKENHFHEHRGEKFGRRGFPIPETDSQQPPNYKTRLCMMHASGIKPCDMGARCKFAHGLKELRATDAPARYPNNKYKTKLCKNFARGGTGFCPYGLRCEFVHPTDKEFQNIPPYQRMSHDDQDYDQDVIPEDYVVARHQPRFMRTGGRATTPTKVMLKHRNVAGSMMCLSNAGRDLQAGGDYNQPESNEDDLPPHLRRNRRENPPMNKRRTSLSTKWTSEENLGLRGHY

[11] = target: T2, Carboxy-terminal domain RNA polymerase II polypeptide A small phosphatase 1 (Homo sapiens, UniProt Q9GZU7); assay: CTDSP1 inhibitors, concentration-response, biochemical, absorbance readout, ultra-high-throughput screen actives (AID 540297); assay type: functional
T2 sequence (Q9GZU7 whole entry): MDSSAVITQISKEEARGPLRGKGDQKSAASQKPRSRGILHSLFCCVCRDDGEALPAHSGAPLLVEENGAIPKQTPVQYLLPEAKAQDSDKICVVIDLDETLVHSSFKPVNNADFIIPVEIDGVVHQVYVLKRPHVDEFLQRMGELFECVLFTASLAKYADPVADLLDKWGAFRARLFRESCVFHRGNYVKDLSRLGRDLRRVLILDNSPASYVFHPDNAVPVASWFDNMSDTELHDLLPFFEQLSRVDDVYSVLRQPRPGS

[12] = target: T3, RNA-binding protein pos-1 (Caenorhabditis elegans, UniProt G5EF15); assay: disruptors of C. elegans POS-1 RNA interaction – biochemical, fluorescence polarization, dose response (AID 1964);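 further: purified POS-1 fused to maltose binding protein made in E. coli; potency of compounds blocking POS-1 binding to fluorescent RNA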
T3 sequence (G5EF15 whole entry): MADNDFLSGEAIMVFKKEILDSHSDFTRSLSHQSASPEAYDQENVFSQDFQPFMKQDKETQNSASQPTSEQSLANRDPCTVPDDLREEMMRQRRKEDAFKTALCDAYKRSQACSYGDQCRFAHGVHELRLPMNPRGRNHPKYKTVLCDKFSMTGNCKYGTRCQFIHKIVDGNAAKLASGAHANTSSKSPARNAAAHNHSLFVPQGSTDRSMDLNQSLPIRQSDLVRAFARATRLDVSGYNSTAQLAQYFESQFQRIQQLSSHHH

Large T antigen = Large T antigen (Simian virus 40, UniProt P03070); assay type: functional, Betapolyomavirus macacae;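 further: Confirmatory-stage PubChem screen for compounds that inhibit SV40 T antigen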
[13] = target: Bifunctional protein GlmU (Mycobacterium tuberculosis, UniProt P9WMN3); assay: Inhibitors of Mycobacterial Glucosamine-1-phosphate acetyl transferase (GlmU). Secondary screen.; set-up: species or system Mycobacterium tuberculosis H37Rv
[14] = target: DNA (cytosine-5)-methyltransferase 1 (Homo sapiens, UniProt P26358); assay: inhibition of DNA methylation by DNMT1 – biochemical, fluorescent molecular beacon, confirmation (AID 602386); assay type: functional
[15] = target: Long-chain-fatty-acid--AMP ligase FadD28 (Mycobacterium tuberculosis, UniProt P9WQ59); assay: Fluorescence polarization aasay to screen for inhibitors that compete for the binding of FadD28 to a bisubstrate Measured in Biochemical System Using Plate Reader - 2147-01_Inhibitor_Dose_CherryPick_Activity.; assay type: functional, Mycobacterium tuberculosis H37Rv
Chain of Long-chain-fatty-acid--AMP ligase FadD28 (P9WQ59 whole entry): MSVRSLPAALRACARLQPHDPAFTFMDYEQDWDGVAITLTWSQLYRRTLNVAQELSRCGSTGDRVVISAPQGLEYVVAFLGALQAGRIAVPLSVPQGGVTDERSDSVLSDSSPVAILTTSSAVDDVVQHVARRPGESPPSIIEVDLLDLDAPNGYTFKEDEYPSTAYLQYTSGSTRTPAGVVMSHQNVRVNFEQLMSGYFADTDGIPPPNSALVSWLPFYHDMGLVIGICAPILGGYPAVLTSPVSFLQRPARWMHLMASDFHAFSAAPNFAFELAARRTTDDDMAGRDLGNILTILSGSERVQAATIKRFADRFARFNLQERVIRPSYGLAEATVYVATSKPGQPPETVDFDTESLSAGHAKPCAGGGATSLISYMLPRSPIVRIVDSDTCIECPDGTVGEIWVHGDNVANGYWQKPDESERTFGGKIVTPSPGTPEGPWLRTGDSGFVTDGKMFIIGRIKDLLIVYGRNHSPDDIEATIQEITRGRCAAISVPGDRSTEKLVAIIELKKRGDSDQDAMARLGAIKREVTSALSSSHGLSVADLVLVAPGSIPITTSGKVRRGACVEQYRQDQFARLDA

Chain of Bifunctional protein GlmU (P9WMN3 whole entry): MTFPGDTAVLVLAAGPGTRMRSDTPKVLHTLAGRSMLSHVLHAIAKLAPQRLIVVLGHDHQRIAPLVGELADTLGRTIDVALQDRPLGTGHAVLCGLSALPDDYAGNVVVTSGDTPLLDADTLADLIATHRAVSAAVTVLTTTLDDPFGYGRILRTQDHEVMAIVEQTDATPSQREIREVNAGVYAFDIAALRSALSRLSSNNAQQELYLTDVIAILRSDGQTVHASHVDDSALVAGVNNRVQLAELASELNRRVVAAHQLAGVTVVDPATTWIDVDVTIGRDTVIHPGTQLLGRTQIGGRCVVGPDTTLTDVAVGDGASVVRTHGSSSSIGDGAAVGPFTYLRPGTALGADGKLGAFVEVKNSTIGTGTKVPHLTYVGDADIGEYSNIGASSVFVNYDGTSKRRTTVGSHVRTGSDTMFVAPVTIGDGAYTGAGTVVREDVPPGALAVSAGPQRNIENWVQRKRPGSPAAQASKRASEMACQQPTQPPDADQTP
Chain of Photoreceptor-specific nuclear receptor (Q9Y5X4 whole entry): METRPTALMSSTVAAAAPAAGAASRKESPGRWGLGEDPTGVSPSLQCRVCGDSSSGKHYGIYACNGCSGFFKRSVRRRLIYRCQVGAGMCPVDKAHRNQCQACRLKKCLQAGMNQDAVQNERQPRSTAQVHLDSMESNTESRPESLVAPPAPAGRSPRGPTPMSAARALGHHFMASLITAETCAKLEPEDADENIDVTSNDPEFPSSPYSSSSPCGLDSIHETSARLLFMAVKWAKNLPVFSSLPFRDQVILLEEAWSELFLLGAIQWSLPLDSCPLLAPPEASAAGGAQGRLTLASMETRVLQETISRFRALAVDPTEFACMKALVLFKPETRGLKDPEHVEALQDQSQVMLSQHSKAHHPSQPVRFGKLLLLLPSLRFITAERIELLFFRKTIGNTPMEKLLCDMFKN
Chain of Peroxisome proliferator-activated receptor gamma/Nuclear receptor corepressor 2 (P37231 whole entry): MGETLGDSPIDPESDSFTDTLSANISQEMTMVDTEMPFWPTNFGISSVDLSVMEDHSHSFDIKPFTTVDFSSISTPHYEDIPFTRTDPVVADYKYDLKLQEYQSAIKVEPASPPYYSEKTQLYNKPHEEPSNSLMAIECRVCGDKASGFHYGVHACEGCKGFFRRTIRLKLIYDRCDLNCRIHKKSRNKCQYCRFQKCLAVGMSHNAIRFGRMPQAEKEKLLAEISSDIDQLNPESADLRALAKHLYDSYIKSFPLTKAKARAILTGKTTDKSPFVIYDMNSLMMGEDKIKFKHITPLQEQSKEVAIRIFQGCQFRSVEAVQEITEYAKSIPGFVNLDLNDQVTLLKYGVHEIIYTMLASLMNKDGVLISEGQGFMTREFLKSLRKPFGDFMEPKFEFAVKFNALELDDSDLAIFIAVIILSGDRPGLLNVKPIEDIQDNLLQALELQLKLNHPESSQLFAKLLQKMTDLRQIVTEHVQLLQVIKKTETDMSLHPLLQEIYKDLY
Chain of Peroxisome proliferator-activated receptor gamma/Nuclear receptor corepressor 2 (Q9Y618 whole entry): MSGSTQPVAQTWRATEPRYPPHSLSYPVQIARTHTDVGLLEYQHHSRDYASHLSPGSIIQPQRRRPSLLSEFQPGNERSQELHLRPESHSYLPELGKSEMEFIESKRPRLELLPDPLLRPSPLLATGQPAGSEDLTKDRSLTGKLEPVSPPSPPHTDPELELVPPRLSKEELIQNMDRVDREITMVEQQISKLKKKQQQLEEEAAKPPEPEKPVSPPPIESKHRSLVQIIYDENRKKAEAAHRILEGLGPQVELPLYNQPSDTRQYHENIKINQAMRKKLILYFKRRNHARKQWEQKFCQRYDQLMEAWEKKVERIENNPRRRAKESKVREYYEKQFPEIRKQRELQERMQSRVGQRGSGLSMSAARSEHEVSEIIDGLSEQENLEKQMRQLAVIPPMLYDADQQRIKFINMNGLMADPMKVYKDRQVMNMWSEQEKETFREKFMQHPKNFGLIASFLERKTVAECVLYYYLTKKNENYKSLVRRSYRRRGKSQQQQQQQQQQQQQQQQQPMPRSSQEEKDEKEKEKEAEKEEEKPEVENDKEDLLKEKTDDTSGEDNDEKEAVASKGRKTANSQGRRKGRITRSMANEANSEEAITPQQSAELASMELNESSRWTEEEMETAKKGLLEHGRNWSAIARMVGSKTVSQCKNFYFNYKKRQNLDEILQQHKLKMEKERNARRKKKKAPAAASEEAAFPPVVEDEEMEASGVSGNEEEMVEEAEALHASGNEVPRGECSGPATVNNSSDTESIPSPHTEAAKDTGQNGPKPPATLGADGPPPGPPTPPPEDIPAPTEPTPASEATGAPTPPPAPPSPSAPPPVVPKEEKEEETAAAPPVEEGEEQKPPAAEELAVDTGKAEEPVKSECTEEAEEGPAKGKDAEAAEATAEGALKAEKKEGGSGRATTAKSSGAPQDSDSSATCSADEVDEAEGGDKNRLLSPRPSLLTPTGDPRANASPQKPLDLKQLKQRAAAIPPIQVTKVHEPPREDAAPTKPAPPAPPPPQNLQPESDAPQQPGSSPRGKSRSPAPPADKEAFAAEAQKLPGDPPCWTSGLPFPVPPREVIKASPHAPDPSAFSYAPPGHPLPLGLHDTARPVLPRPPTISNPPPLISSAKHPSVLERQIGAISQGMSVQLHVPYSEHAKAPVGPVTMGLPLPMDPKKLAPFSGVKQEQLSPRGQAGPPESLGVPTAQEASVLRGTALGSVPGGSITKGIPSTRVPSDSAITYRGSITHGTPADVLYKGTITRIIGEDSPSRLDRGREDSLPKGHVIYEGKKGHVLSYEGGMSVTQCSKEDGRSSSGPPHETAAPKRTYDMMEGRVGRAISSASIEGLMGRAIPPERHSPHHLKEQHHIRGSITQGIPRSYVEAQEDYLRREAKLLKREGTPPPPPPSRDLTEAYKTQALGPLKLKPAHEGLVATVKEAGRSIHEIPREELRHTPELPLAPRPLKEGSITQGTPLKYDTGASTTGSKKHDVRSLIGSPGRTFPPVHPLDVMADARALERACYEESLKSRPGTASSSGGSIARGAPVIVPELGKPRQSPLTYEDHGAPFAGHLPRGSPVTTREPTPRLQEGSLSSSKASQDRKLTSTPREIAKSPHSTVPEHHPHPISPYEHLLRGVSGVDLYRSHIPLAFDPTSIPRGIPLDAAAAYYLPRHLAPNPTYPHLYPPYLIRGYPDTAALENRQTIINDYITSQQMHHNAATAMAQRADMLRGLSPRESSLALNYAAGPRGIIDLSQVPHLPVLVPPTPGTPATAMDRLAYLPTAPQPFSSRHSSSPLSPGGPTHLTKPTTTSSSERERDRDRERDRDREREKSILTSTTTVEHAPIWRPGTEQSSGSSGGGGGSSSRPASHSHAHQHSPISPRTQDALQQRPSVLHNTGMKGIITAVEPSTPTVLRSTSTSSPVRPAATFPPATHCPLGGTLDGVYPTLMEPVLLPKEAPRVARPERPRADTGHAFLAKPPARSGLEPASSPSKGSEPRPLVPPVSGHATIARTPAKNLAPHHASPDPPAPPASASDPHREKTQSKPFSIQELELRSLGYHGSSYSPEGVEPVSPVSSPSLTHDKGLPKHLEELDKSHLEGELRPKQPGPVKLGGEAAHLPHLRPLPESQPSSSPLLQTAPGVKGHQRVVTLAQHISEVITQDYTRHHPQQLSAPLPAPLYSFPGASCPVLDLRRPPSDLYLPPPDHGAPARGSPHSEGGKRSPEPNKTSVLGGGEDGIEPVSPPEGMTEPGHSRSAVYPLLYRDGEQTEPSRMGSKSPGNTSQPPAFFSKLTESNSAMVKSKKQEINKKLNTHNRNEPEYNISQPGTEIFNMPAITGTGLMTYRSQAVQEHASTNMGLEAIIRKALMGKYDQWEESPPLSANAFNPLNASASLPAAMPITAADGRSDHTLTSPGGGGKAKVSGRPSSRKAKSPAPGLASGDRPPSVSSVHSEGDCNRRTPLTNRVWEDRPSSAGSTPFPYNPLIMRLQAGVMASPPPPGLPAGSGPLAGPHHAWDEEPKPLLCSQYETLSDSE

## CCN(Cc1ccccc1)S(=O)(=O)c1ccc(C(=O)Nc2nnc(C3CC3)o2)cc1
[1]
  EC50: 12.6 µM (active)
[2]
  CC50: 20.2 µM (active)
[3]
  EC50: > 120 µM (not active)
[4]
  EC50: 13.7 µM (active)
[5]
  EC50: 8.9 µM (active)
[6]
  EC50: 9.37 µM (active)
[7]
  EC50: 25.3 µM (active)

## NC(=O)c1ccc(NC(=O)CNC(=O)c2sc3ccccc3c2Cl)cc1
[8]
  IC50: 4.85 µM (active)
[9]
  IC50: 2.8 µM (active)

## Cc1ccc(NC(=O)CN2C(=O)N/C(=C\c3cccn3-c3cccc(C(=O)O)c3)C2=O)cc1
[10]
  EC50: 54 µM (active)
[11]
  IC50: 2.2 µM (active)
[12]
  EC50: > 300 µM (not active)
Large T antigen
  IC50: > 100 µM (active)
[13]
  IC50: 103 µM (active)
[14]
  IC50: 6.05 µM (active)
[15]
  AC50: 28 µM (active)
